The results in this text go back to ChEMBL document CHEMBL3758163, “Extended structure-activity study of thienopyrimidine-based EGFR inhibitors with evaluation of drug-like properties” (Eur J Med Chem, 2016).

Assay [1] has as its target Receptor tyrosine-protein kinase erbB-2 (Homo sapiens) (UniProt P04626). The experiment in a line: Inhibition of ERBB2 (unknown origin) at 500 nM.
Assay [2] deals with Tyrosine-protein kinase Lyn (Homo sapiens) (UniProt P07948). The experiment in a line: Inhibition of LYN A (unknown origin) at 500 nM.
Sequence of Tyrosine-protein kinase Lyn (Homo sapiens) (P07948 2-512 limits assumed): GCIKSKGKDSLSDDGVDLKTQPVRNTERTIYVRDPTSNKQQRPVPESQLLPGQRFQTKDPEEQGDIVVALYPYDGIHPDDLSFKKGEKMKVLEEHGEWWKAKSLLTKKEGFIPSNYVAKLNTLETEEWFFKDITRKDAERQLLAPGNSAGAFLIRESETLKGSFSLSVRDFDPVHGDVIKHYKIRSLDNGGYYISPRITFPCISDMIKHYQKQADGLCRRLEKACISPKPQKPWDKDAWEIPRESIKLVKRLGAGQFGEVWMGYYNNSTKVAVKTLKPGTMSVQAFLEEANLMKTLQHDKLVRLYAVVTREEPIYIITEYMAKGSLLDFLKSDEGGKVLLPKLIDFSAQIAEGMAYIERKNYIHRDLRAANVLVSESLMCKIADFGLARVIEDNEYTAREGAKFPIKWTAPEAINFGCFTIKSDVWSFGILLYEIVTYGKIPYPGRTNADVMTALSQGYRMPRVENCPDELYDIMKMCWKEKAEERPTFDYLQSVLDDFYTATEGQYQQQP
Assay [3] deals with Serine/threonine-protein kinase B-raf (Homo sapiens) (UniProt P15056). The experiment in a line: Inhibition of BRAF (unknown origin) at 500 nM.
The target in assay [4] is T1, Aurora kinase A (Homo sapiens) (UniProt O14965).
T1 sequence (whole entry): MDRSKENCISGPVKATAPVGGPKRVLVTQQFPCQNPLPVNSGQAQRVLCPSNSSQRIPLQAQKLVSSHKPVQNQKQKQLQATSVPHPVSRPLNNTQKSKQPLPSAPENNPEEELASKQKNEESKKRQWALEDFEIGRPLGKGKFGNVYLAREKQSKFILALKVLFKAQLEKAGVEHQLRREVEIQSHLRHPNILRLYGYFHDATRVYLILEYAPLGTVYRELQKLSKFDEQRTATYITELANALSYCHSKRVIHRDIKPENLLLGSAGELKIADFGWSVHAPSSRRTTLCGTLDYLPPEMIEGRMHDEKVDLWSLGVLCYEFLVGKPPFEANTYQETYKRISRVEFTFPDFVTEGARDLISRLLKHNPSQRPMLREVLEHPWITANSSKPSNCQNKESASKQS
In words: Inhibition of AURKA (unknown origin) at 500 nM.

For assay [5], the target named is Vascular endothelial growth factor receptor 2 (Homo sapiens) (UniProt P35968). The experiment in a line: Inhibition of KDR (unknown origin) at 500 nM.
Sequence of Vascular endothelial growth factor receptor 2 (Homo sapiens) (P35968 whole entry): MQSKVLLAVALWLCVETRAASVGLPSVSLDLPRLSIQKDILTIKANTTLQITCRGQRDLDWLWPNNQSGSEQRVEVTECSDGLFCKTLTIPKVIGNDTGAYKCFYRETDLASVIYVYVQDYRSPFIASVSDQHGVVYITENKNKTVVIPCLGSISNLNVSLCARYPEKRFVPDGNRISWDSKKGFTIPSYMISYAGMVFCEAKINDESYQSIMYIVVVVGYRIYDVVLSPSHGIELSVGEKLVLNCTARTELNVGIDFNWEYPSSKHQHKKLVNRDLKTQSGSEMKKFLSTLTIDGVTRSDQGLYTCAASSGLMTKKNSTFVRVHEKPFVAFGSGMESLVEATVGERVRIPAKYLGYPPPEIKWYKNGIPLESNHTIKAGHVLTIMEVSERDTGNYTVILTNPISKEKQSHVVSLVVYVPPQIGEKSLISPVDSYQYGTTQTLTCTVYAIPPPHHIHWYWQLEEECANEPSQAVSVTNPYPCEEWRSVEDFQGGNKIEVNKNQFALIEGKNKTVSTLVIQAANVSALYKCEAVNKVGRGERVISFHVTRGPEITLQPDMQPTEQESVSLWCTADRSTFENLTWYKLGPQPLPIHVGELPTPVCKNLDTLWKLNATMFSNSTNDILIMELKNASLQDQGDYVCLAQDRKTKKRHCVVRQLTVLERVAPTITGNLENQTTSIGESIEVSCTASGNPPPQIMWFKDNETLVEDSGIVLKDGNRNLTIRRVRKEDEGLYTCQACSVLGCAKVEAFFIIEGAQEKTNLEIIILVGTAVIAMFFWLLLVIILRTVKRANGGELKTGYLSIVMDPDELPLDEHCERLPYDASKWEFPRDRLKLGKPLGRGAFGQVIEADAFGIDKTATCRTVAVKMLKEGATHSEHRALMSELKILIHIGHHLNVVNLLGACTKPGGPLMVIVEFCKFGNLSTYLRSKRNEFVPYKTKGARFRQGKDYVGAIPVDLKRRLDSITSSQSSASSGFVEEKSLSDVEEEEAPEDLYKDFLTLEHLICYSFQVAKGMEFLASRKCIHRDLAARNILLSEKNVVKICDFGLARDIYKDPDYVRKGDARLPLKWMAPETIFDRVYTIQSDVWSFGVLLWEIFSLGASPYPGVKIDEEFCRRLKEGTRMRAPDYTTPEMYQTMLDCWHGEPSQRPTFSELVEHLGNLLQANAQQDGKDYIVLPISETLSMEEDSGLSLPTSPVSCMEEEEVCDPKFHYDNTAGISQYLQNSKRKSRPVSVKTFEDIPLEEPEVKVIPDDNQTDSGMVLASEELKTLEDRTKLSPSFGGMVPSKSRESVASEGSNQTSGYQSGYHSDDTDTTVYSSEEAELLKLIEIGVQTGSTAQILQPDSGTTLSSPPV
The target in assay [6] is Glycogen synthase kinase-3 beta (Homo sapiens) (UniProt P49841). In words: Inhibition of GSK3B (unknown origin) at 500 nM.
In assay [7] the target is Vascular endothelial growth factor receptor 3 (Homo sapiens) (UniProt P35916). The experiment in a line: Inhibition of FLT4 (unknown origin) at 500 nM.
The target in assay [8] is Fibroblast growth factor receptor 1 (Homo sapiens) (UniProt P11362). In words: Inhibition of FGFR1 (unknown origin) at 500 nM.
Sequence of Fibroblast growth factor receptor 1 (Homo sapiens) (P11362 22-822 limits assumed): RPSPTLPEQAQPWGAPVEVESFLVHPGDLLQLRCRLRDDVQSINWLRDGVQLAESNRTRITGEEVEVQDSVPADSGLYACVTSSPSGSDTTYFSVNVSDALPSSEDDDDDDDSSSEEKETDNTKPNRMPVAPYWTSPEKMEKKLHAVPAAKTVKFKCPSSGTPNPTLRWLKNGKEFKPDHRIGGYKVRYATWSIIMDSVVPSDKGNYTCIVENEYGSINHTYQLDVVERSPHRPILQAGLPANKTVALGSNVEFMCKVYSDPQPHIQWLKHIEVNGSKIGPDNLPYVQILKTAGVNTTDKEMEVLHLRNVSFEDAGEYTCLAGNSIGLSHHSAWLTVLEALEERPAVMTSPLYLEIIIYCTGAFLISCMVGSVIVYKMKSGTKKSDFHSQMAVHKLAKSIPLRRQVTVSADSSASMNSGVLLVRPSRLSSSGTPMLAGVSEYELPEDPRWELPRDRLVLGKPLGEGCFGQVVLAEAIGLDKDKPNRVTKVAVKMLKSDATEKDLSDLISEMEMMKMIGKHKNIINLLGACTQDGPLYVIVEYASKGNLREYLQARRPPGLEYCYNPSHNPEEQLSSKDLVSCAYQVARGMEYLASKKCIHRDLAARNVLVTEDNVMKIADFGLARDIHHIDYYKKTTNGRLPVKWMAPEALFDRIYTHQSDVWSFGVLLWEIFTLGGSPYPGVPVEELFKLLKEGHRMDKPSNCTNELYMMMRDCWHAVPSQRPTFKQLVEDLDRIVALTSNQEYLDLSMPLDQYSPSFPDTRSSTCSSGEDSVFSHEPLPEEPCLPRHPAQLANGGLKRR
Assay [9] deals with Serine/threonine-protein kinase PLK1 (Homo sapiens) (UniProt P53350). The experiment in a line: Inhibition of PLK1 (unknown origin) at 500 nM.
Assay [10] concerns the target Platelet-derived growth factor receptor alpha (Homo sapiens) (UniProt P16234). In words: Inhibition of PDGFRA (unknown origin) at 500 nM.
Assay [11] addresses Tyrosine-protein kinase Fgr (Homo sapiens) (UniProt P09769). The experiment in a line: Inhibition of FGR (unknown origin) at 500 nM.
In assay [12] the target is Tyrosine-protein kinase Fer (Homo sapiens) (UniProt P16591). The experiment in a line: Inhibition of FER (unknown origin) at 500 nM.
Assay [13] concerns the target T2, Serine/threonine-protein kinase Nek1 (Homo sapiens) (UniProt Q96PY6).
T2 sequence (whole entry): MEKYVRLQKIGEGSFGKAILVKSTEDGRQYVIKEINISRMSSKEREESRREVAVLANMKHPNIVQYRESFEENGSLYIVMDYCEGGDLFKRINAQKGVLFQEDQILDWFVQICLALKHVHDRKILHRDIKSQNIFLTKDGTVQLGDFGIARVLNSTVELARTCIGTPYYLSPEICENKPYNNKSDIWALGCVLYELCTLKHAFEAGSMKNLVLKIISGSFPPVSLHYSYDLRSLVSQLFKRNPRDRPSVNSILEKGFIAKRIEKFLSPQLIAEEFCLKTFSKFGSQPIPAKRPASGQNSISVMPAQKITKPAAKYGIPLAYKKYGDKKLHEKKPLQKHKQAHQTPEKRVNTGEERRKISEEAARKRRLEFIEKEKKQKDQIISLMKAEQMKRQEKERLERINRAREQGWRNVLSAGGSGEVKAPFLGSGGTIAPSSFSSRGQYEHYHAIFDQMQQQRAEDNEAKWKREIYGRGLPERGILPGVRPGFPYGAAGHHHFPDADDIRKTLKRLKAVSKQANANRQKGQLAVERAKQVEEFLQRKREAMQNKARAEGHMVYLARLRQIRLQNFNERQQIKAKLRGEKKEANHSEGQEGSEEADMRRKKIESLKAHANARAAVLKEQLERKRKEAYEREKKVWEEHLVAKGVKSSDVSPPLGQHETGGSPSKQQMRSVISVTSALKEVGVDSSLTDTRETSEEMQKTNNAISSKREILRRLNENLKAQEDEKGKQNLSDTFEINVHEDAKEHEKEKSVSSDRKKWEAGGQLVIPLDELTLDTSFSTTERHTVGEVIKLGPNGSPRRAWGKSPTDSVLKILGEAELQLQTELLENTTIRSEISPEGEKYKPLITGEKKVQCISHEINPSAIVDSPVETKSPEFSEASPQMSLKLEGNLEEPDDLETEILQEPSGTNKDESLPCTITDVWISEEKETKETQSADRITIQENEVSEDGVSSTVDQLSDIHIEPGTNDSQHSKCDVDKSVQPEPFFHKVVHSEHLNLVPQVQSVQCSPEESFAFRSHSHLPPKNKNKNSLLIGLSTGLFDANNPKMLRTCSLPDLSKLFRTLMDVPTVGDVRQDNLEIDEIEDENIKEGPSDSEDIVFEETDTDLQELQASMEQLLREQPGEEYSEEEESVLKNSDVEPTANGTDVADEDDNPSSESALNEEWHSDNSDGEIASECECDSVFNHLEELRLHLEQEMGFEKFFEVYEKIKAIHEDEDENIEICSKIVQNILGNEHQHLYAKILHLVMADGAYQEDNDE
In words: Inhibition of NEK1 (unknown origin) at 500 nM.

Assay [14] has as its target Proto-oncogene tyrosine-protein kinase receptor Ret (Homo sapiens) (UniProt P07949). The experiment in a line: Inhibition of RET (unknown origin) at 500 nM.
For assay [15], the target named is Macrophage colony-stimulating factor 1 receptor (Homo sapiens) (UniProt P07333). The experiment in a line: Inhibition of CSF1R (unknown origin) at 500 nM.
The target in assay [16] is Mitogen-activated protein kinase 1 (Homo sapiens) (UniProt P28482). The experiment in a line: Inhibition of MAPK1 (unknown origin) at 500 nM.
Sequence of Mitogen-activated protein kinase 1 (Homo sapiens) (P28482 whole entry): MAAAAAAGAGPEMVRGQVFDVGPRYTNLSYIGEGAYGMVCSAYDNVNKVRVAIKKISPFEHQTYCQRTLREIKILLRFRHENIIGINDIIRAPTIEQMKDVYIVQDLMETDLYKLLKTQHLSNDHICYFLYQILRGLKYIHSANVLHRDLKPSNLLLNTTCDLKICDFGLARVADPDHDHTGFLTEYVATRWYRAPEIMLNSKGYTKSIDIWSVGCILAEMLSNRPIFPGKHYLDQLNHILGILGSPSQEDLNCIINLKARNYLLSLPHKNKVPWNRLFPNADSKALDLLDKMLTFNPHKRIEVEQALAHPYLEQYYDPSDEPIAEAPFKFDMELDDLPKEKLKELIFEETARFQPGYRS
The target of assay [17] is Platelet-derived growth factor receptor beta (Homo sapiens) (UniProt P09619). The experiment in a line: Inhibition of PDGFRB (unknown origin) at 500 nM.
For assay [18], the target named is Tyrosine-protein kinase Yes (Homo sapiens) (UniProt P07947). In words: Inhibition of YES1 (unknown origin) at 500 nM.
Sequence of Tyrosine-protein kinase Yes (Homo sapiens) (P07947 2-543 limits assumed): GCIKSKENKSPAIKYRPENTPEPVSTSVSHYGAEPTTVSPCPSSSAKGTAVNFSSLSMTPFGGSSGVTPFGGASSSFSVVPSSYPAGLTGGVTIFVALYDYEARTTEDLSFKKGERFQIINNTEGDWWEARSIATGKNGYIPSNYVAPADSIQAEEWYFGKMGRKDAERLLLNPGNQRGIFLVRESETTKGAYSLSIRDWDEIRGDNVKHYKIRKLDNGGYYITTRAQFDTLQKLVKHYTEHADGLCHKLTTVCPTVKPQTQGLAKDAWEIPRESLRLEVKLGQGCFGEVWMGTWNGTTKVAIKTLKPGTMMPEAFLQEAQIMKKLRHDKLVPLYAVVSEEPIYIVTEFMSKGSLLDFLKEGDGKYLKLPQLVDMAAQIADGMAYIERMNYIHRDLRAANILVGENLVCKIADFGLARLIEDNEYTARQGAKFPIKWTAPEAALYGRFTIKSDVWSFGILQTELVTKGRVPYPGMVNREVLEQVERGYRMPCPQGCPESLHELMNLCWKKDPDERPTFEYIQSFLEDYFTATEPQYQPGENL
Assay [19] concerns the target Protein kinase C beta type (Homo sapiens) (UniProt P05771). In words: Inhibition of PRKCB1 (unknown origin) at 500 nM.
Assay [20] addresses cAMP-dependent protein kinase catalytic subunit alpha (Homo sapiens) (UniProt P17612). The experiment in a line: Inhibition of PRKACA (unknown origin) at 500 nM.
Assay [21] concerns the target Mast/stem cell growth factor receptor Kit (Homo sapiens) (UniProt P10721). In words: Inhibition of KIT (unknown origin) at 500 nM.
The target in assay [22] is Receptor tyrosine-protein kinase erbB-4 (Homo sapiens) (UniProt Q15303). In words: Inhibition of ERBB4 (unknown origin) at 500 nM.

Sequence of Mast/stem cell growth factor receptor Kit (Homo sapiens) (P10721 whole entry): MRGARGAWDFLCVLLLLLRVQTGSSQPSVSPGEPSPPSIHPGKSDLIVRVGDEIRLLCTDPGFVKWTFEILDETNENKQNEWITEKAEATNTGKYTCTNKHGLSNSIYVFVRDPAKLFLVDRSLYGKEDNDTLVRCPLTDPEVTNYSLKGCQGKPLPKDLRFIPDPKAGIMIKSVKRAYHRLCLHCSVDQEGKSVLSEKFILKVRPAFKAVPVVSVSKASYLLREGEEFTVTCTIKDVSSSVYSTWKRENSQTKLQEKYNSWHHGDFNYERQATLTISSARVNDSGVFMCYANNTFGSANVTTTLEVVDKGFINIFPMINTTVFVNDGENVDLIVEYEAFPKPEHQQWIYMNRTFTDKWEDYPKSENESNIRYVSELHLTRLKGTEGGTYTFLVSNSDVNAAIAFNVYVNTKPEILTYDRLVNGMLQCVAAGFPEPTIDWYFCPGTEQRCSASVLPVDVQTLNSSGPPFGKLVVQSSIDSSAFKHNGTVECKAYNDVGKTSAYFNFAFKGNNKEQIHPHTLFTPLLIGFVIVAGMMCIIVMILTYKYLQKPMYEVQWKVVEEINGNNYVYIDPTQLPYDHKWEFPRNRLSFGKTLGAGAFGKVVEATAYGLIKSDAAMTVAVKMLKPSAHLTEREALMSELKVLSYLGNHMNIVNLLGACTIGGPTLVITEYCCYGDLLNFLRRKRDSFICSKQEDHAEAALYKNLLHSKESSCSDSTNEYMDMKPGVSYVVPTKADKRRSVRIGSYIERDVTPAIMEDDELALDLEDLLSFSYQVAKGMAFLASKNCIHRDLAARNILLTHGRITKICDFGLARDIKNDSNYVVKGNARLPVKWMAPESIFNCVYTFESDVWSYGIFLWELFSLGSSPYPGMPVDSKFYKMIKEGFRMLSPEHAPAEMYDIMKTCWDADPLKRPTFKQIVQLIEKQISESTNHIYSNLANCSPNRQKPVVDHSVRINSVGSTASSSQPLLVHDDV
Sequence of Tyrosine-protein kinase Fgr (Homo sapiens) (P09769 2-529 limits assumed): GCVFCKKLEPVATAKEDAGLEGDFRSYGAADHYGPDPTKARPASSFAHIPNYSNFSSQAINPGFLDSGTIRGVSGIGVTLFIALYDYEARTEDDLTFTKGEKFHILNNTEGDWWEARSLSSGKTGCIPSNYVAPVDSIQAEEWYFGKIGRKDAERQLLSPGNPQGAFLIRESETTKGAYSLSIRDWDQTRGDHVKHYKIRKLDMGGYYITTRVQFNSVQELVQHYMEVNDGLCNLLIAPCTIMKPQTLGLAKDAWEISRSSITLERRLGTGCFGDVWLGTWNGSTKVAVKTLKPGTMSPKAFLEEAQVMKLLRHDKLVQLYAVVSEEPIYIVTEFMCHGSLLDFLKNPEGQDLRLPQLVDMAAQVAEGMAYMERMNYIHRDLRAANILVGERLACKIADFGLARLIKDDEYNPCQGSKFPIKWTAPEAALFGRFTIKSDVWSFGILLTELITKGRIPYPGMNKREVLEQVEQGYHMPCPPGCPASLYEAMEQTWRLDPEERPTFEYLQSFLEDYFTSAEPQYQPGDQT

On to `C[C@@H](Nc1ncnc2sc(-c3ccc(C(=O)NCCN(C)C)cc3)cc12)c1ccccc1`, for which the inhibition (as a rule, the drop in the measured response relative to a control, in per cent) amounted to 40% in assay [1]; 38% in assay [2]; 23% in assay [3]; 3% in [4]; 6% in assay [5]; 5% in [6]. The inhibition was 13% in assay [7]; -7% in [8]; 1% in [9]; 15% in assay [10]; 18% in [11]; -4% in assay [12]. Besides, the inhibition in assay [13] was 4%; in assay [14], -2%; in assay [15] it was 8%; in [16], 9%; in assay [17] it was 6%; in [18], 23%. In addition, the inhibition in assay [19] is 2%; in [20], -6%; in assay [21], -5%; in [22], 14%.

Consider `C#Cc1cccc(Nc2ncnc3cc(OCCOC)c(OCCOC)cc23)c1` [ERLOTINIB], for which the inhibition is 68% in assay [2]; -8% in [6]; -4% in assay [8]; -9% in [9]; 42% in [11]; -1% in assay [12]. In addition, the inhibition in [13] is -8%; in assay [14], 64%; in assay [15] it was 38%; in [17] it was -5%; in assay [19], -2%; in [20] it was -10%. For the same molecule, in assay [22], the inhibition amounted to 78%.

As for `CN(C)CCNC(=O)c1ccc(-c2cc3c(N[C@H](CO)c4ccccc4)ncnc3s2)cc1`, the inhibition in assay [1] came out at 54%; in assay [2], 31%; in assay [3] it was 7%; in assay [4] it was 6%; in assay [5], 10%; in assay [6], 3%. Also, the inhibition in [7] was 4%; in assay [8], -5%; in assay [9], 6%; in assay [10], 10%; in [11] it was 33%; in assay [12], -4%. Further, the inhibition was 20% in assay [14]; 0% in assay [15]; -2% in assay [16]; -5% in assay [17]; 21% in [18]; 18% in [19]. For the same molecule, the inhibition in assay [20] is -5%; in [21], 1%; in assay [22] it was 30%.

With `C[C@@H](Nc1ncnc2sc(-c3ccccc3C(N)=O)cc12)c1ccccc1`, the inhibition in assay [1] is -3%; in assay [2], 16%; in assay [3] it was 21%; in assay [4], 6%; in assay [5], -4%; in [6], 6%. The inhibition in assay [7] is 2%; in assay [8] it was -6%; in assay [9] it was -3%; in assay [10], -7%; in [11], 2%; in assay [12] it was -4%. The inhibition in assay [13] was 3%; in assay [14] it was -5%; in assay [15], 3%; in assay [16], 9%; in assay [17] it was 6%; in assay [18], 10%. The inhibition was 3% in [19], -8% in [20], -7% in assay [21] and 10% in assay [22].

Take `COc1cc(CO)ccc1-c1cc2c(Nc3ccc(F)c(Cl)c3)ncnc2s1`: the inhibition is 48% in assay [1]; 13% in [2]; 3% in assay [3]; -6% in [4]; 3% in assay [5]; 4% in assay [6]. In addition, the inhibition in assay [7] was 8%; in [8], -7%; in [9], 6%; in [10], 5%; in assay [11] it was 11%; in assay [12], -1%. Moreover, the inhibition in assay [14] was 16%; in assay [15] it was 4%; in assay [16], 6%; in assay [17], -3%; in [18], 14%; in assay [19], -2%. Further, the inhibition in [20] came out at 8%; in [21], 1%; in assay [22], 31%.

In the case of `C#Cc1cccc(Nc2ncnc3sc(-c4ccc(CO)cc4OC)cc23)c1`, the inhibition worked out at 19% in assay [1]; 13% in assay [2]; 16% in [3]; 14% in assay [4]; 8% in assay [5]; 8% in assay [6]. Further, the inhibition in assay [7] is 7%; in assay [8], -6%; in assay [9], -8%; in assay [10], -9%; in [11] it was 11%; in [12], -2%. Also, the inhibition in assay [13] is -6%; in assay [14], 0%; in assay [15] it was -1%; in assay [16] it was 1%; in assay [17], 13%; in assay [18], 8%. For the same molecule, the values for the inhibition in assay [19], in assay [20] and in assay [22] were -2%, -1% and 12%, respectively.
